Data published in US20030187037A1, “Acetamide derivatives and the use thereof as inhibitors of coagulation factors xa and viia” (priority 2000, published 2003).

Assays:
TF/VIIa = TF/VIIa (Homo sapiens, UniProt P08709); experiment: Inhibition of TF/VIIa (IC50, headed 'Affinity to Receptors'); assay type: biochemical
Source text: The inhibition of factor VIIa by the compounds according to the invention and the measurement of the anticoagulant and antithrombotic activity can be determined by conventional in-vitro or in-vivo methods. A conventional method for the measurement of the inhibition of factor VIIa is described, for example, by H. F. Ronning et al. in Thrombosis Research 1996, 84, 73-81.

factor Xa, human = factor Xa, human (Homo sapiens, UniProt P00742); experiment: Inhibition of factor Xa (IC50, headed 'Affinity to Receptors'); assay type: biochemical
Source text: The inhibition of factor Xa by the compounds according to the invention and the measurement of the anticoagulant and antithrombotic activity can be determined by conventional in-vitro or in-vivo methods. A suitable method is described, for example, by J. Hauptmann et al. in Thrombosis and Haemostasis 1990, 63, 220-223.
The inhibition of factor Xa can be measured, for example, by the method of T. Hara et al. in Thromb. Haemostas. 1994, 71, 314-319.

factor Xa, human, sequence (P00742 235-488 limits assumed): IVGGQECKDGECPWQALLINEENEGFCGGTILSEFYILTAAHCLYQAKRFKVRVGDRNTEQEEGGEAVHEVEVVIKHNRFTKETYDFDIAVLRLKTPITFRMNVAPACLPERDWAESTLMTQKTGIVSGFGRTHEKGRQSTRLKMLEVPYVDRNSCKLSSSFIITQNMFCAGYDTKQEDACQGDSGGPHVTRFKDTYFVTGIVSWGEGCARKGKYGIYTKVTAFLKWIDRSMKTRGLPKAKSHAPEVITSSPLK
factor Xa, human, sequence (P00742 41-179 partner limits assumed): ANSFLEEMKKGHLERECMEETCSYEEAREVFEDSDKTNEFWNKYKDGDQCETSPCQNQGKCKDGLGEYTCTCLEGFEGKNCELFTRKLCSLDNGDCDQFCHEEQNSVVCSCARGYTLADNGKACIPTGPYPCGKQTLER
TF/VIIa, sequence (P08709 213-466 limits assumed): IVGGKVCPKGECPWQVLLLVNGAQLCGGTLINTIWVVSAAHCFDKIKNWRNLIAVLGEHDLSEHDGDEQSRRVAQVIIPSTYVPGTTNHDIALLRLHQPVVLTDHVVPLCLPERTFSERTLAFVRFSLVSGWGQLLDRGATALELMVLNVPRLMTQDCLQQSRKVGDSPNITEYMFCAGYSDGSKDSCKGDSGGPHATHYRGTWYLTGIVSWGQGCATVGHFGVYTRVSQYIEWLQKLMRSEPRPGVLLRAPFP
TF/VIIa, sequence (P08709 61-212 partner limits assumed): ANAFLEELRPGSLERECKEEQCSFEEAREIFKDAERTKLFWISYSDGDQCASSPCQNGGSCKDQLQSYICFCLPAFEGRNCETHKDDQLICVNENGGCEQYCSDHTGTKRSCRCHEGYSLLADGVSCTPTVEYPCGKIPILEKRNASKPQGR
TF/VIIa, sequence (P13726 33-295 partner): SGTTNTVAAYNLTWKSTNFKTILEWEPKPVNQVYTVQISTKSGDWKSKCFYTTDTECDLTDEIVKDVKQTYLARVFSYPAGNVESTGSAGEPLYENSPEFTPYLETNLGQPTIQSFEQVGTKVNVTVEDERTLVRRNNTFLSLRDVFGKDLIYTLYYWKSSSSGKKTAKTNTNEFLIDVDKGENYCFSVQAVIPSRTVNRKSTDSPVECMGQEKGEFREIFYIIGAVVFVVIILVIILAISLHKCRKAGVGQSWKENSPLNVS

IC50 (TF/VIIa) [nM]	IC50 (factor Xa, human) [nM]	Structure (SMILES)
900	2000	CCCN(Cc1cccc(C(=N)N)c1)C(=O)Cc1ccc(-c2ccccc2S(N)(=O)=O)cc1 [Example 3.3, N-3-amidinobenzyl-N-propyl-2-(2′-sulfamoylbiphenyl-4-yl)acetamide]
700	1000	CCCN(Cc1cccc(C(=N)N)c1)C(=O)Cc1ccc(-c2ccccc2S(C)(=O)=O)cc1 [Example 4.3, N-(3-amidinobenzyl)-N-propyl-2-(2′-methylsulfonylbiphenyl-4-yl)acetamide]
650	550	CS(=O)(=O)c1ccccc1-c1ccc(CC(=O)N(Cc2cccc(C(=N)N)c2)c2ccccc2)cc1 [N-(3-amidinobenzyl)-N-phenyl-2-(2′-methylsulfonylbiphenyl-4-yl)acetamide]
1500	2000	N=C(N)c1cccc(CN(C(=O)Cc2ccc(-c3ccccc3S(N)(=O)=O)cc2)c2ccccc2)c1 [N-(3-amidinobenzyl)-N-phenyl-2-(2′-sulfamoylbiphenyl-4-yl)acetamide]
